Tests used:
Format in all cases: biochemical
CysF [1] = biological target: T1, CysF (Kitasatospora cystarginea, UniProt A0A1W6R555); assay: LC-MS, hydroxylamine trapping as hydroxamic acid […]; conditions: ATP, adenylation only, no lactone formed
T1 construct: C-terminal His tag (pET21-a(+)), E. coli; 8RA0 is the apo structure, residues 1-491 mentioned
T1 sequence (A0A1W6R555 1-491): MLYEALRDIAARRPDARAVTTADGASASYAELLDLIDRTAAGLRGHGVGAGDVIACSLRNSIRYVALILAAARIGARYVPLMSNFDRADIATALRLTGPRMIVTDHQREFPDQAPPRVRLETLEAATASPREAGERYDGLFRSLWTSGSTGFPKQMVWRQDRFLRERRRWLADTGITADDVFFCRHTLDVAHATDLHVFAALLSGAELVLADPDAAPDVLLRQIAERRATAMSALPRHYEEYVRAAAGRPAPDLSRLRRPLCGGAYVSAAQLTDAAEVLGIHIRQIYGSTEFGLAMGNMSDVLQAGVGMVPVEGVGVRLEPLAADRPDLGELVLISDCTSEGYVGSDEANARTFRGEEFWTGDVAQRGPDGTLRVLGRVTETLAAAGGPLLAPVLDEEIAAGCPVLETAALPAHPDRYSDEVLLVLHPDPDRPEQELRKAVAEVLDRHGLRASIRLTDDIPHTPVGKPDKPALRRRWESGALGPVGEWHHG

CysG = biological target: T2, CysG (Kitasatospora cystarginea, UniProt A0A1W6R556); assay: LC-MS and NMR product analysis; conditions: MgCl2, phosphate pH 7.8, 25 °C
T2 construct: C-terminal His tag (pET28-a(+)), E. coli BL21(DE3)
T2 sequence (A0A1W6R556 1-228): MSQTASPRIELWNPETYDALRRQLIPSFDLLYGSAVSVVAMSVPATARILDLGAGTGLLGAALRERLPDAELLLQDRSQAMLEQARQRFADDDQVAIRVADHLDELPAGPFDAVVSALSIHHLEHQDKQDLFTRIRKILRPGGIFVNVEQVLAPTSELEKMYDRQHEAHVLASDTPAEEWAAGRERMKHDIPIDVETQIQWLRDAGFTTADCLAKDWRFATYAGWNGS

CysF [2] = biological target: T1, CysF; assay: GC-MS and 1H NMR product analysis; conditions: ATP, MgCl2, phosphate pH 7.8, 25 °C; β-lactonization to 3a
BhCysFE = biological target: T3, BhCysFE (Bradyrhizobium huanghuaihaiense, UniProt A0A562R406); assay: LC-MS
T3 construct: gene IQ16_06114; natural fusion (CysF-like aa 1-487, linker ATPVNMR, CysE-like aa 495-768), C-terminal His tag (pET28-a(+)), E. coli
T3 sequence (A0A562R406 1-768): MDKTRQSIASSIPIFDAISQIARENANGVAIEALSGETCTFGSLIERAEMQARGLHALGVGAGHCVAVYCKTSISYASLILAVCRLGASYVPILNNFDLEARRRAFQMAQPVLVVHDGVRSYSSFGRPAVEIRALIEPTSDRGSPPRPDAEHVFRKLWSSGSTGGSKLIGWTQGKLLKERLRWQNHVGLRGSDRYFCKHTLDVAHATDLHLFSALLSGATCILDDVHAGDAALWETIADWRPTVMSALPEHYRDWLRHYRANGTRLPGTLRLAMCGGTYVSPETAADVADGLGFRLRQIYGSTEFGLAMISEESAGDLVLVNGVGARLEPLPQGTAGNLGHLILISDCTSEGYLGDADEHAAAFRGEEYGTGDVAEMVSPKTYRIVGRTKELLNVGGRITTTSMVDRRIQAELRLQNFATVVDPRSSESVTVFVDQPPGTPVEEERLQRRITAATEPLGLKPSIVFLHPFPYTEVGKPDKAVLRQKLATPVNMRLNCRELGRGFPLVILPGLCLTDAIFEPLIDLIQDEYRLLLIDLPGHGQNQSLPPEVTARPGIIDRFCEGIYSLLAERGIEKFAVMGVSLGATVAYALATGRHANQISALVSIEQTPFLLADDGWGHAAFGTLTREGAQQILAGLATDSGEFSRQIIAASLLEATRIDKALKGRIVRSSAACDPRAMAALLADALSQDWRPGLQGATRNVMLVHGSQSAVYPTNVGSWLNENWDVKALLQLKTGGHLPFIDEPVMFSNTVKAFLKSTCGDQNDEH

BelH = biological target: T4, BelH (Streptomyces sp., UniProt A0A1W6R584); assay: LC-MS and GC-MS, cascade assay with BelI or BelR; conditions: ATP, MgCl2, phosphate pH 7.8, 25 °C; β-lactonization to 3b
T4 construct: N-terminal His tag (pET28-a(+)), E. coli BL21(DE3)
T4 sequence (A0A1W6R584 1-491): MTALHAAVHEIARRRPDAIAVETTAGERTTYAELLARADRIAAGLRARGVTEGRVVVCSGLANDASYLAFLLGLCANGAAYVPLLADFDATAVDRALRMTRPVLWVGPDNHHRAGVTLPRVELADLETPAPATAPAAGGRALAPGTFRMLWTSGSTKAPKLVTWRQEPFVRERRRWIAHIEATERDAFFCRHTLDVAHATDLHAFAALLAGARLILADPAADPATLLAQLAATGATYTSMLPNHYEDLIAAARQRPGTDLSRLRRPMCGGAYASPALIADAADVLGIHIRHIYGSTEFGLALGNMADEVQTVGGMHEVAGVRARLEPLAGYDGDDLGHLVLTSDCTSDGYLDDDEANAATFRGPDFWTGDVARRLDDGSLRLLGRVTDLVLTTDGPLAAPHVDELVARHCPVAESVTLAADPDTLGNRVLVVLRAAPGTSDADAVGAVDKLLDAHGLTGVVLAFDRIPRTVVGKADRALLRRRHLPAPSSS

CysE = biological target: T5, CysE (Kitasatospora cystarginea, UniProt A0A1W6R564); assay: LC-MS, tandem assay with CysF; conditions: 3a generated in situ from 2a by CysF and ATP; MgCl2, phosphate pH 7.8, 25 °C
T5 construct: C-terminal His tag (pET28-a(+)), E. coli BL21(DE3)
T5 sequence (A0A1W6R564 1-271): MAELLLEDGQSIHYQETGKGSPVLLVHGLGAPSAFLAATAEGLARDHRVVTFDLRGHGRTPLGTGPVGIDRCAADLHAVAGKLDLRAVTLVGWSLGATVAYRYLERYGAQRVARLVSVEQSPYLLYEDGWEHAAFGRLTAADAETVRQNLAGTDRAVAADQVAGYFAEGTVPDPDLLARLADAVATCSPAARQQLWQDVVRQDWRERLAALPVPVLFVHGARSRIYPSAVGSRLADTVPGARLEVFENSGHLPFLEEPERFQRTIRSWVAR

SMILES: CC(C)[C@H](C(=O)O)[C@@H](O)C(=O)O [1a, malic acid 1a]
- LC-MS, hydroxylamine trapping as hydroxamic acid 10 (CysF [1]): CysF can efficiently activate the C4-carboxyl of 1a
- LC-MS and NMR product analysis (CysG; SAM, C1-carboxylate methylated): CysG exclusively produced the C1-methyl ester 2a from 1a and SAM

SMILES: COC(=O)[C@H](O)[C@@H](C(=O)O)C(C)C [2a, C1-methyl ester 2a]
- GC-MS and 1H NMR product analysis (CysF [2]): 2a was again consumed in the CysF reaction with ATP
- LC-MS (BhCysFE; ATP, lactonization and ester hydrolysis to 4a): incubated with 2a and ATP, leading to a quantitative production of 4a

SMILES: CCC(C)[C@H](C(=O)O)[C@@H](O)C(=O)OC (some centres unmarked) [2b]
- LC-MS and GC-MS, cascade assay with BelI or BelR (BelH): GC-MS analysis of the CysGF and BelIH cascade confirmed the formation of 3a/b

SMILES: COC(=O)[C@@H]1OC(=O)[C@H]1C(C)C [3a, β-lactone methyl ester 3a]
- LC-MS, tandem assay with CysF (CysE): tandem reaction with CysF and CysE, including ATP, resulted in the β-lactone carboxylic acid 4a

SMILES: C[S+](CC[C@H](N)C(=O)O)C[C@H]1O[C@@H](n2cnc3c(N)ncnc32)[C@H](O)[C@@H]1O (some centres unmarked) [S-adenosyl methionine]
- LC-MS and NMR product analysis (CysG; co-substrate 1a): CysG exclusively produced the C1-methyl ester 2a from 1a and SAM

SMILES: Nc1ncnc2c1ncn2[C@@H]1O[C@H](COP(=O)(O)OP(=O)(O)OP(=O)(O)O)[C@@H](O)[C@H]1O [adenosine triphosphate]
- LC-MS (BhCysFE; co-substrate 2a): incubated with 2a and ATP, leading to a quantitative production of 4a

From publication PMC11427300, “Cryptic enzymatic assembly of peptides armed with β-lactone warheads” (Nature Chemical Biology, 2024)
